The record followed here is patent US20030096704A1, “Novel use of herbicides” (priority 2000, published 2003).

Experiment [1] concerns Rice ATCC 97523 (ALS-inhibitor-resistant rice variety SPCW-1). The experiment is described as follows: Post-emergence herbicidal action on rice (paddy system): phytotoxicity on ALS-inhibitor-resistant rice. The format is in vivo, Oryza sativa. The conditions noted are these: 8 g/ha, evaluated after about 21 days, 0% no action, 100% plant completely died. Here is the method: (§1) Post-emergence Herbicidal Action on Rice:
(§2) Weeds are sown and raised in soil saturated with water in plastics troughs. The rice plants are sown and grown separately from the weeds and after 10 days transplanted into the plastics troughs containing the weeds. The test compounds are then applied to the plants in the form of an aqueous suspension. One day after application, the water level is raised by 3 cm (paddy system).
(§3) The test plants are then grown on in a greenhouse under optimum conditions. […] For comparison with the prior art, the compound sulfometuron-methyl (known from The Pesticide Manual, 10th ed., the British Crop Protection Council, page 931) is tested. Sulfometuron-methyl belongs to the same class of ALS-inhibitors as the compound of formula I. The compound of formula I and sulfometuron-methyl are tested at a rate of application of 8 g/ha.
The ALS-inhibitor-resistant rice variety used is Oryza sativa, Linnaeus name: SPCW-1, deposited under the number ATCC 97523, depositor: Louisiana State Univ.

For experiment [2], the system named is Rice “Lemont” (conventional rice variety). The experiment is described as follows: Post-emergence herbicidal action on rice (paddy system): phytotoxicity on conventional rice. The conditions noted are these: 8 g/ha, evaluated after about 21 days, 0% no action, 100% plant completely died. Format: in vivo, Oryza sativa. Here is the method: as §1, §2, §3
The variety “Lemont” is used as conventional rice variety.

The subject of experiment [3] is Cyperus serotinus (CYPSE). The experiment is described as follows: Post-emergence herbicidal action on rice (paddy system): weed control. The format is in vivo. The conditions noted are these: 8 g/ha; leaf stage 3, height 11 cm at application; about 21 days. Here is the method:
as §1, §2, §3

Experiment [4] concerns Echinochloa crus galli (ECHCG). The experiment is described as above. Conditions: 8 g/ha, about 21 days. Format: in vivo. Here is the method:
as §1, §2, §3

Experiment [5] relates to Monochoria vaginalis (MOOVA). The experiment is described as above. Conditions: 8 g/ha; leaf stage 2, height 1 cm at application; about 21 days. The format is in vivo. On the procedure: as §1, §2, §3

On to `COC(=O)c1ccccc1S(=O)(=O)NC(=O)Nc1nc(C)cc(C)n1` [sulfometuron-methyl], for which the “% Phytotoxicity Rice ATCC 97523” value in experiment [1] is 95%. Further, the “% Phytotoxicity Rice “Lemont”” value in experiment [2] was found to be 100%. Besides, the “% Weed control CYPSE” value in experiment [3] was determined as 95%. Besides, the “% Weed control ECHCG 1” value in experiment [4] (Echinochloa crus galli post 1.0 leaf (leaf stage 1.5, height 6 cm at application)) stood at 100%. Further, the “% Weed control ECHCG 3” value in experiment [4] (Echinochloa crus galli post 3.0 leaf (leaf stage 3, height 25 cm at application)) is reported as 98%. For the same compound, the “% Weed control MOOVA” value in experiment [5] came to 100%.
